Test results: PubChem BioAssay AID248 (DTP/NCI, 2004)
“And” between values parts separate entries of the source, which are not always exact repeats. Identical values can stand only once. Toxic doses and inconclusive results are not listed. No stated cut-off is given here; in the data, active means T/C of 150% or more; inactive means T/C below 125%.

Test system: L1210 leukemia ip in BDF1 mice, survival T/C
Test: NCI In Vivo Anticancer Drug Screen. Data for tumor model L1210 Leukemia (intraperitoneal) in B6D2F1 (BDF1) mice
Settings: endpoint: mean survival time, higher = longer survival
In short: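 Value reflects the ratio of survival in compound-treated mice to survival in vehicle-treated controls, with both groups carrying the same transplanted tumor.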

[1] = dose: 100.0 mg/kg/injection, schedule: Q01DX001 (ip), vehicle: saline
[2] = dose: 100.0 mg/kg/injection, schedule: Q04DX003 (ip), vehicle: saline
[3] = dose: 200.0 mg/kg/injection, schedule: Q01DX001 (ip), vehicle: saline
[4] = dose: 200.0 mg/kg/injection, schedule: Q04DX003 (ip), vehicle: saline
[5] = dose: 400.0 mg/kg/injection, schedule: Q01DX001 (ip), vehicle: saline
[6] = dose: 400.0 mg/kg/injection, schedule: Q04DX003 (ip), vehicle: saline
[7] = dose: 100.0 mg/kg/injection, schedule: Q01DX009 (ip), vehicle: Klucel (hydroxypropylcellulose) (HPC)
[8] = dose: 200.0 mg/kg/injection, schedule: Q01DX009 (ip), vehicle: Klucel (hydroxypropylcellulose) (HPC)
[9] = dose: 400.0 mg/kg/injection, schedule: Q01DX009 (ip), vehicle: Klucel (hydroxypropylcellulose) (HPC)
[10] = dose: 100.0 mg/kg/injection, schedule: Q04DX003 (ip), vehicle: saline with Tween-80
[11] = dose: 200.0 mg/kg/injection, schedule: Q04DX003 (ip), vehicle: saline with Tween-80
[12] = dose: 400.0 mg/kg/injection, schedule: Q04DX003 (ip), vehicle: saline with Tween-80
[13] = dose: 75.0 mg/kg/injection, schedule: Q01DX001 (ip), vehicle: saline
[14] = dose: 150.0 mg/kg/injection, schedule: Q01DX001 (ip), vehicle: saline
[15] = dose: 100.0 mg/kg/injection, schedule: Q04DX003 (ip), vehicle: Klucel (hydroxypropylcellulose) (HPC)
[16] = dose: 200.0 mg/kg/injection, schedule: Q04DX003 (ip), vehicle: Klucel (hydroxypropylcellulose) (HPC)
[17] = dose: 400.0 mg/kg/injection, schedule: Q04DX003 (ip), vehicle: Klucel (hydroxypropylcellulose) (HPC)
[18] = dose: 50.0 mg/kg/injection, schedule: Q01DX009 (ip), vehicle: saline
[19] = dose: 200.0 mg/kg/injection, schedule: Q01DX009 (ip), vehicle: saline

Measured: T/C

Nc1nc2c(c(-c3ccccc3)n1)CN(CCCC(=O)O)C2=O
inactive: [1] 103 % of control | [2] 100 % of control | [3] 105 % of control | [4] 98 % of control | [5] 97 % of control | [6] 100 % of control

NC(=O)c1ccccc1NC(=O)Nc1ccccc1C(F)(F)F
inactive: [7] 98 % of control | [8] 98 % of control | [9] 100 % of control

CCCCCCCCCCCCCCCC(=O)N(CCC#N)c1ccc(N(CCC#N)C(=O)CCCCCCCCCCCCCCC)cc1
inactive: dose: 100.0 mg/kg/injection, schedule: Q01DX001 (ip), vehicle: saline with Tween-80 93 % of control | dose: 100.0 mg/kg/injection, schedule: Q01DX009 (ip), vehicle: saline with Tween-80 86 % of control | [10] 104 % of control | dose: 200.0 mg/kg/injection, schedule: Q01DX001 (ip), vehicle: saline with Tween-80 98 % of control | dose: 200.0 mg/kg/injection, schedule: Q01DX009 (ip), vehicle: saline with Tween-80 88 % of control | [11] 94 % of control | dose: 400.0 mg/kg/injection, schedule: Q01DX001 (ip), vehicle: saline with Tween-80 94 % of control | dose: 400.0 mg/kg/injection, schedule: Q01DX009 (ip), vehicle: saline with Tween-80 86 % of control | [12] 93 % of control

O=C(Nc1ccc(Cl)c(Cl)c1)OCCCl
inactive: [13] 89 % of control | [14] 109 % of control

CCCCCCCCN(C)N=Nc1ccc(Cl)cc1C(=O)O
inactive: dose: 150.0 mg/kg/injection, schedule: Q01DX009 (ip), vehicle: Klucel (hydroxypropylcellulose) (HPC) 117 % of control

CC/C=C(CC)/C(CC)=C(/C#N)CC
inactive: [2] 108 % of control | [4] 93 % of control | [6] 98 % of control

O=c1[nH][nH]c(=O)c2nc3ccccc3nc12
inactive: [7] 97 % of control | [15] 94 % of control | [8] 100 % of control | [16] 97 % of control | [9] 93 % of control | [17] 92 % of control

O=C(O)c1ccc(OCCc2ccccc2)cc1
inactive: [13] 98 % of control | dose: 75.0 mg/kg/injection, schedule: Q04DX003 (ip), vehicle: saline 103 % of control | [14] 98 % of control | dose: 150.0 mg/kg/injection, schedule: Q04DX003 (ip), vehicle: saline 98 % of control | dose: 300.0 mg/kg/injection, schedule: Q01DX001 (ip), vehicle: saline 95 % of control | dose: 300.0 mg/kg/injection, schedule: Q04DX003 (ip), vehicle: saline 93 % of control

Br/C=C/c1ccccc1
inactive: dose: 100.0 mg/kg/injection, schedule: Q04DX002 (ip), vehicle: saline with Tween-80 94 % of control | dose: 200.0 mg/kg/injection, schedule: Q04DX002 (ip), vehicle: saline with Tween-80 97 % of control | dose: 400.0 mg/kg/injection, schedule: Q04DX002 (ip), vehicle: saline with Tween-80 100 % of control

OC1CCSC1 (stereo not drawn)
inactive: [18] 95 % of control | dose: 100.0 mg/kg/injection, schedule: Q01DX009 (ip), vehicle: saline 95 % of control | [19] 98 % of control

CCCCCCCCCC(=O)CCCCCC
inactive: [7] 96 % of control | [15] 95 % of control | [8] 98 % of control | [16] 103 % of control | [9] 107 % of control | [17] 93 % of control

COC(=O)c1cc(C)[nH]c2c(C)cc3nc4ccccc4c3c12
inactive: dose: 50.0 mg/kg/injection, schedule: Q01DX001 (ip), vehicle: saline 95 % of control | [1] 98 % of control | [3] 101 % of control | [5] 104 % of control

Cc1ccc2nc(-c3ccc(F)cc3)cc(C(=O)O)c2c1
inactive: [2] 92 % of control | [4] 89 % of control | [6] 95 % of control

COc1cc2c(cc1OC)C1CCc3cc(OC)c(OC)cc3C1N=C2 (stereo not drawn)
inactive: dose: 80.0 mg/kg/injection, schedule: Q01DX009 (ip), vehicle: saline 102 % of control | dose: 120.0 mg/kg/injection, schedule: Q01DX009 (ip), vehicle: saline 93 % of control | dose: 240.0 mg/kg/injection, schedule: Q01DX009 (ip), vehicle: saline 93 % of control | dose: 360.0 mg/kg/injection, schedule: Q01DX009 (ip), vehicle: saline 93 % of control

NNS(=O)(=O)c1ccc(N=Nc2ccccc2)cc1
inactive: [10] 90 % of control | [11] 93 % of control | [12] 97 % of control

O=[N+]([O-])c1ccc(CSCc2ccc(Cl)cc2)cc1
inactive: dose: 100.0 mg/kg/injection, schedule: Q01DX001 (ip), vehicle: carboxymethylcellulose (CMC) 97 % of control | dose: 200.0 mg/kg/injection, schedule: Q01DX001 (ip), vehicle: carboxymethylcellulose (CMC) 97 % of control | dose: 400.0 mg/kg/injection, schedule: Q01DX001 (ip), vehicle: carboxymethylcellulose (CMC) 94 % of control

CC1(C)N=C(N)N=C(N)N1c1cccc(OCCOc2ccc(NC(=O)CBr)cc2)c1
inactive: [18] 124 % of control | [1] 94 % of control | [3] 109 % of control | dose: 200.0 mg/kg/injection, schedule: Q01DX009 (ip), vehicle: other 100 % of control | [19] 97 % of control | [5] 112 % of control
active: dose: 100.0 mg/kg/injection, schedule: Q01DX009 (ip), vehicle: other 172 % of control | dose: 150.0 mg/kg/injection, schedule: Q01DX009 (ip), vehicle: other 154 % of control

C=CCNCC(O)c1ccccc1 (stereo not drawn)
inactive: dose: 25.0 mg/kg/injection, schedule: Q01DX009 (ip), vehicle: Klucel (hydroxypropylcellulose) (HPC) 90 % of control | dose: 50.0 mg/kg/injection, schedule: Q01DX009 (ip), vehicle: Klucel (hydroxypropylcellulose) (HPC) 95 % of control | [7] 95 % of control and 103 % of control | [15] 95 % of control | [16] 101 % of control | [17] 95 % of control

COc1cc(Cc2nccc3cc(OC)c(OC)cc23)c(C(C)=O)cc1OC
inactive: dose: 0.9 mg/kg/injection, schedule: Q03HX024 (ip), vehicle: saline 98 % of control | dose: 1.8 mg/kg/injection, schedule: Q03HX024 (ip), vehicle: saline 97 % of control | dose: 2.9 mg/kg/injection, schedule: Q01DX Z (ip), vehicle: saline 107 % of control | dose: 3.5 mg/kg/injection, schedule: Q03HX024 (ip), vehicle: saline 107 % of control | dose: 4.4 mg/kg/injection, schedule: Q01DX Z (ip), vehicle: saline 111 % of control | dose: 6.6 mg/kg/injection, schedule: Q01DX Z (ip), vehicle: saline 115 % of control | dose: 7.0 mg/kg/injection, schedule: Q03HX024 (ip), vehicle: saline 111 % of control | dose: 7.0 mg/kg/injection, schedule: Q04DX003 (ip), vehicle: saline 97 % of control | dose: 10.0 mg/kg/injection, schedule: Q01DX Z (ip), vehicle: saline 119 % of control | dose: 14.0 mg/kg/injection, schedule: Q04DX003 (ip), vehicle: saline 104 % of control | dose: 22.0 mg/kg/injection, schedule: Q01DX009 (ip), vehicle: saline 121 % of control | dose: 28.0 mg/kg/injection, schedule: Q04DX003 (ip), vehicle: saline 120 % of control | dose: 33.0 mg/kg/injection, schedule: Q01DX009 (ip), vehicle: saline 109 % of control | dose: 35.0 mg/kg/injection, schedule: Q01DX009 (ip), vehicle: saline 121 % of control | dose: 56.0 mg/kg/injection, schedule: Q04DX003 (ip), vehicle: saline 118 % of control | dose: 75.0 mg/kg/injection, schedule: Q01DX009 (ip), vehicle: saline 108 % of control | dose: 75.0 mg/kg/injection, schedule: Q01DX Z (ip), vehicle: saline 93 % of control
active: [18] 154 % of control

Cc1nn(C)c(Cl)c1[N+](=O)[O-]
inactive: [7] 102 % of control | dose: 100.0 mg/kg/injection, schedule: Q04DX002 (ip), vehicle: Klucel (hydroxypropylcellulose) (HPC) 102 % of control | [8] 97 % of control | dose: 200.0 mg/kg/injection, schedule: Q04DX002 (ip), vehicle: Klucel (hydroxypropylcellulose) (HPC) 91 % of control | [9] 100 % of control | dose: 400.0 mg/kg/injection, schedule: Q04DX002 (ip), vehicle: Klucel (hydroxypropylcellulose) (HPC) 94 % of control
